Measurements as given in US4157399A, “Benzo(B)thiophenes” (Parcor, priority 1976, dated 1979).
Where a name gives a salt, the structure may show the parent alone.

Assays:
Format in all cases: in vivo
[1] = Rabbit fed cholesterol-enriched (1%) feedstuff, dosage of elements causing dyslipemia; design: total cholesterol (T) / esterified cholesterol (E) / Kunkelphenol test (K2) / Burstein dextrane test (B) / serum lipids (LS): unit not given here; details: 100 mg/Kg orally
Experimental: (§1) The animals divided into several batches of 15 animals are fed with feedstuff enriched in cholesterol (1%). Batch A serves as control and is not treated, the other batches also receive the derivatives to be tested at a dose of 100 mg/Kg, administered orally, suspended in aqueous solution of gum arabic at 5%. On the first day of experimentation and then every 15 days for 75 days biological examinations are conducted on all the animals, during which the various elements causing dyslipemia are dosed; total cholesterol (T), esterified cholesterol (E), free cholesterol (L), esterification ratio (E/T), Kunkel-Phenol test (K1), Kunkelphenol test (K2), Burstein dextrane test (B) and serum lipids (LS).

[2] = test system: fatty infiltrations of the liver; assay: Rabbit autopsy, mark for fatty infiltrations of the liver; details: mark of 0 to 3; end of test (75 days); 100 mg/Kg orally
Experimental: as §1
(§2) At the end of the test all the animals are killed and an autopsy is carried out; a macroscopic examination is then conducted on the livers and aortas and a mark of 0 to 3 is given to the amount of fatty infiltrations of the liver and 0 to 4 to the intensity of aortic atheromatous lesions.

[3] = test system: aortic atheromatous lesions; assay: Rabbit autopsy, mark for aortic atheromatous lesions; details: mark of 0 to 4; end of test (75 days); 100 mg/Kg orally
Experimental: as §1, §2

[4] = Propylthiouracil test, free and total cholesterol in the rat; details: 11th day; propylthiouracil-treated rats; oral 100 mg/Kg
Experimental: Experiments were carried out according to the propylthiouracil test (RANNEY & Coll., J. PHARMACOL. EXPER. THERAP. 1963, 142, 132-136). The propyl-thiouracil administered to adult rats has the property of making them hypercholesterolemic: the plasma level of cholesterol increases by approximately 15% under these conditions. Experiments are conducted on various batches of rats, the control batch receiving only propylthiouracil and the other treated batches also receiving the composition of the invention at an oral dose of 100 mg/Kg.
On the 11th day of experimentation blood samples are taken and the free cholesterol and total cholesterol is dosed.

Row | SMILES | Burstein dextrane test (B) ([1]; 1st day) | Kunkel-Phenol test (K1) ([1]; 1st day) | Kunkelphenol test (K2) ([1]; 1st day) | esterification ratio (E/T) ([1]; 1st day) | esterified cholesterol (E) ([1]; 1st day) | free cholesterol (L) ([1]; 1st day) | serum lipids (LS) ([1]; 1st day) | total cholesterol (T) ([1]; 1st day) | Burstein dextrane test (B) ([1]; 30th day) | Kunkel-Phenol test (K1) ([1]; 30th day) | Kunkelphenol test (K2) ([1]; 30th day) | esterification ratio (E/T) ([1]; 30th day) | esterified cholesterol (E) ([1]; 30th day) | free cholesterol (L) ([1]; 30th day) | serum lipids (LS) ([1]; 30th day) | total cholesterol (T) ([1]; 30th day) | Burstein dextrane test (B) ([1]; 75th day) | Kunkel-Phenol test (K1) ([1]; 75th day) | Kunkelphenol test (K2) ([1]; 75th day) | esterification ratio (E/T) ([1]; 75th day) | further results
1 | c1ccc(CN(Cc2ccccc2)c2c(-c3ccccc3)sc3ccccc23)cc1 [derivative 19, 3-dibenzylamino-2-phenyl-benzo(b)thiophene] | 10,9 | 8,0 | 13,1 | 0,50 | 0,28 | 0,29 | 1,97 | 0,57 | 2,3 | 18,4 | 25,3 | 0,64 | 0,95 | 0,52 | 2,84 | 1,47 | 36,1 | 33,5 | 46,5 | 0,61 | esterified cholesterol (E) ([1]; 75th day): 1,79; free cholesterol (L) ([1]; 75th day): 1,12; serum lipids (LS) ([1]; 75th day): 4,08; total cholesterol (T) ([1]; 75th day): 2,91; fatty infiltrations of the liver [2]: 1,2; aortic atheromatons lesions [3]: 1,3; Free cholesterol [4]: 0,14 g/l; Total cholesterol [4]: 0,58 g/l
2 | c1ccc(CN2CCN(c3c(-c4ccccc4)sc4ccccc34)CC2)cc1 [derivative 24, 3-(4-benzylpiperazino)-2-phenyl-benzo(b) thiophene] | 10,8 | 8,2 | 13,0 | 0,50 | 0,28 | 0,27 | 2,00 | 0,55 | 2,1 | 18,8 | 25,3 | 0,65 | 0,98 | 0,52 | 2,87 | 1,50 | 35,2 | 32,9 | 48,2 | 0,61 | esterified cholesterol (E) ([1]; 75th day): 1,80; free cholesterol (L) ([1]; 75th day): 1,11; serum lipids (LS) ([1]; 75th day): 3,98; total cholesterol (T) ([1]; 75th day): 2,91; fatty infiltrations of the liver [2]: 1,00; aortic atheromatons lesions [3]: 1,4; Free cholesterol [4]: 0,14 g/l; Total cholesterol [4]: 0,56 g/l
3 | CN(C)c1c(-c2ccccc2)sc2ccccc12 [derivative 29, 3-dimethylamino-2-phenyl-benzo(b)thiophene] | 10,7 | 7,8 | 12,7 | 0,46 | 0,27 | 0,28 | 1,95 | 0,58 | 21,00 | 18,4 | 24,9 | 0,60 | 0,89 | 0,59 | 2,83 | 1,48 | 35,1 | 32,6 | 41,5 | 0,60 | esterified cholesterol (E) ([1]; 75th day): 1,75; free cholesterol (L) ([1]; 75th day): 1,15; serum lipids (LS) ([1]; 75th day): 3,95; total cholesterol (T) ([1]; 75th day): 2,90; fatty infiltrations of the liver [2]: 0,8; aortic atheromatons lesions [3]: 1,1; Free cholesterol [4]: 0,12 g/l; Total cholesterol [4]: 0,50 g/l
4 | CCN(CC)c1c(-c2ccc(Cl)cc2)sc2ccccc12 [derivative 37, Hydrochloride of 2-(4-chlorophenyl)-3-diethylamino-benzo(b)thiophene] | 10,5 | 8,2 | 12,9 | 0,47 | 0,27 | 0,30 | 2,00 | 0,57 | 21,3 | 18,8 | 25,1 | 0,62 | 0,97 | 0,58 | 2,85 | 1,55 | 35,7 | 32,8 | 46,7 | 0,61 | esterified cholesterol (E) ([1]; 75th day): 1,80; free cholesterol (L) ([1]; 75th day): 1,14; serum lipids (LS) ([1]; 75th day): 4,15; total cholesterol (T) ([1]; 75th day): 2,94; fatty infiltrations of the liver [2]: 1,00; aortic atheromatons lesions [3]: 1,3; Free cholesterol [4]: 0,13 g/l; Total cholesterol [4]: 0,58 g/l
5 | CCCCN(C)c1c(-c2ccc(OC)cc2)sc2ccccc12 [derivative 42, 3-(N-butyl,N-methylamino)-2-(4-methoxyphenyl)-benzo(b)thiophene] | 11,2 | 8,1 | 13,7 | 0,50 | 0,26 | 0,25 | 2,05 | 0,51 | 21,2 | 18,9 | 25,5 | 0,62 | 0,90 | 0,55 | 2,91 | 1,45 | 35,4 | 33,2 | 45,0 | 0,61 | esterified cholesterol (E) ([1]; 75th day): 1,85; free cholesterol (L) ([1]; 75th day): 1,09; serum lipids (LS) ([1]; 75th day): 4,05; total cholesterol (T) ([1]; 75th day): 2,94; fatty infiltrations of the liver [2]: 0,9; aortic atheromatons lesions [3]: 1,5; Free cholesterol [4]: 0,12 g/l; Total cholesterol [4]: 0,54 g/l
6 | c1ccc(CNc2c(-c3ccccc3)sc3ccccc23)cc1 [derivative n° 1, 3-benzylamino-2-phenyl-benzo(b)thiophene] | 10,8 | 7,9 | 12,8 | 0,53 | 0,28 | 0,24 | 1,98 | 0,52 | 21,3 | 18,8 | 25,7 | 0,63 | 0,95 | 0,55 | 2,9 | 1,50 | 36,2 | 33,3 | 44,2 | 0,62 | esterified cholesterol (E) ([1]; 75th day): 1,84; free cholesterol (L) ([1]; 75th day): 1,12; serum lipids (LS) ([1]; 75th day): 4,18; total cholesterol (T) ([1]; 75th day): 2,96; fatty infiltrations of the liver [2]: 1,1; aortic atheromatons lesions [3]: 1,6; Free cholesterol [4]: 0,15 g/l; Total cholesterol [4]: 0,61 g/l
